Measured values as given in patent US12233161B1, “Lipids and lipid nanoparticle formulations” (LONGUIDE BIOPHARMA CORPORATION, priority 2024, dated 2025).

Tested on: mice
Experiment: In vivo delivery of FLuc-mRNA lipid nanoparticles in mice, in vivo imaging (IVIS)
Conditions: Fluc-mRNA LNP, formulation, molar ratio and N/P as in the table
Protocol: After the preparation was completed, the preparation was injected intramuscularly (mice rectus femoris muscle of the thigh), intravenously (mice tail vein), or intraperitoneal injection or subcutaneous injection (subcutaneous on the back), with approximately 75 μL per mouse, for a total of 3 mice. After a certain time of injection, in vivo imaging (PerkinElmer, IVIS Lumina III) was performed. 10-15 minutes before imaging, 200 μL of 15 mg/mL D-Luciferin working solution was injected intraperitoneally, and the imaging analysis was performed using an in vivo imager.

In the case of `CCCCCCCCCCN(C)C(=O)C(O)CN(CCN(C)CCN(CC(O)C(=O)N(C)CCCCCCCCCC)CC(O)C(=O)N(C)CCCCCCCCCC)CC(O)C(=O)N(C)CCCCCCCCCC` (centres unmarked) [Compound L0349], the IVIS (route IM, organ not given) is reported as 8.25E+04 and the IVIS (route IV, organ not given) is reported as 5.98E+05.

With `CCCCCCCCN(C)C(=O)C(O)CN(CCCN(C)CCCN(CC(O)C(=O)N(C)CCCCCCCC)CC(O)C(=O)N(C)CCCCCCCC)CC(O)C(=O)N(C)CCCCCCCC` (centres unmarked) [Compound L0350] the IVIS (route IM, organ not given) was 1.75E+05, the IVIS (route IV, organ: body) was 8.43E+06 and the “% of organ targeting” value (route IV, organ: liver) was 0.95%. The IVIS (route IV, organ: liver) was 2.94E+05, the “% of organ targeting” value (route IV, organ: lung) was 96.29% and the IVIS (route IV, organ: lung) was 2.99E+07. The “% of organ targeting” value (route IV, organ: spleen) was 2.76% and the IVIS (route IV, organ: spleen) was 8.57E+05.

`CCCCCCCCN(C)C(=O)C(O)CN(C)CCN(C)CCN(C)CC(O)C(=O)N(C)CCCCCCCC` (centres unmarked) [Compound L0351] showed an IVIS (route IM, organ not given) of 1.19E+06 and an IVIS (route IV, organ not given) of 1.55E+06.

`CCCCCCCCN(C)C(=O)C(O)CN(CCN(C)CCN(CC(O)C(=O)N(C)CCCCCCCC)CC(O)C(=O)N(C)CCCCCCCC)CC(O)C(=O)N(C)CCCCCCCC` (centres unmarked) [Compound L0352] was tested, and the IVIS (route IM, organ not given) was 4.47E+05, the IVIS (route IV, organ: body) was 1.95E+06 and the “% of organ targeting” value (route IV, organ: liver) was 15.27%. For the same compound, the IVIS (route IV, organ: liver) was 4.07E+05, the “% of organ targeting” value (route IV, organ: lung) was 8.93% and the IVIS (route IV, organ: lung) was 2.38E+05. The “% of organ targeting” value (route IV, organ: spleen) was 75.80% and the IVIS (route IV, organ: spleen) was 2.02E+06.

In the case of `CCCCCCCCCCN(C)C(=O)C(O)CN(CCCN(CC(O)C(=O)N(C)CCCCCCCCCC)CC(O)C(=O)N(C)CCCCCCCCCC)CCCN(CC(O)C(=O)N(C)CCCCCCCCCC)CC(O)C(=O)N(C)CCCCCCCCCC` (centres unmarked) [Compound L0353], the IVIS (route IM, organ not given) is reported as 1.68E+07, the IVIS (route IV, organ: body) is reported as 1.21E+08 and the “% of organ targeting” value (route IV, organ: liver) is reported as 31.60%. The IVIS (route IV, organ: liver) was 3.54E+07, the “% of organ targeting” value (route IV, organ: lung) was 2.97% and the IVIS (route IV, organ: lung) was 3.33E+06. For the same compound, the “% of organ targeting” value (route IV, organ: spleen) was 65.43% and the IVIS (route IV, organ: spleen) was 7.33E+07.

In the case of `CCCCCCCCN(C)C(=O)C(O)CN(CCCN(CC(O)C(=O)N(C)CCCCCCCC)CC(O)C(=O)N(C)CCCCCCCC)CCCN(CC(O)C(=O)N(C)CCCCCCCC)CC(O)C(=O)N(C)CCCCCCCC` (centres unmarked) [Compound L0354], the IVIS (route IM, organ not given) is reported as 6.90E+06, the IVIS (route IV, organ: body) is reported as 1.35E+08 and the “% of organ targeting” value (route IV, organ: liver) is reported as 44.24%. The IVIS (route IV, organ: liver) was 3.14E+07, the “% of organ targeting” value (route IV, organ: lung) was 1.31% and the IVIS (route IV, organ: lung) was 9.31E+05. For the same compound, the “% of organ targeting” value (route IV, organ: spleen) was 54.45% and the IVIS (route IV, organ: spleen) was 3.86E+07.

In the case of `CCCCCCCCCCCCCCN(C)C(=O)C(O)CN(CCCN(C)CCCN(CC(O)C(=O)N(C)CCCCCCCCCCCCCC)CC(O)C(=O)N(C)CCCCCCCCCCCCCC)CC(O)C(=O)N(C)CCCCCCCCCCCCCC` (centres unmarked) [Compound L0355], the IVIS (route IM, organ not given) is reported as 2.41E+06, the IVIS (route IV, organ: body) is reported as 9.52E+06 and the “% of organ targeting” value (route IV, organ: liver) is reported as 1.66%. For the same compound, the IVIS (route IV, organ: liver) was 2.63E+05, the “% of organ targeting” value (route IV, organ: lung) was 84.86% and the IVIS (route IV, organ: lung) was 1.34E+07. For the same compound, the “% of organ targeting” value (route IV, organ: spleen) was 13.48% and the IVIS (route IV, organ: spleen) was 2.13E+06.

In the case of `CCCCCCCCCCCCCCN(C)C(=O)C(O)CN(CCN(C)CCN(CC(O)C(=O)N(C)CCCCCCCCCCCCCC)CC(O)C(=O)N(C)CCCCCCCCCCCCCC)CC(O)C(=O)N(C)CCCCCCCCCCCCCC` (centres unmarked) [Compound L0356], the IVIS (route IM, organ not given) is reported as 1.62E+05, the IVIS (route IV, organ: body) is reported as 2.19E+06 and the “% of organ targeting” value (route IV, organ: liver) is reported as 7.17%. The IVIS (route IV, organ: liver) was 1.12E+05, the “% of organ targeting” value (route IV, organ: lung) was 75.97% and the IVIS (route IV, organ: lung) was 1.18E+06. The “% of organ targeting” value (route IV, organ: spleen) was 16.86% and the IVIS (route IV, organ: spleen) was 2.63E+05.

With `CCCCCCCCCCCCCCN(C)C(=O)C(O)CN(CCCN(CC(O)C(=O)N(C)CCCCCCCCCCCCCC)CC(O)C(=O)N(C)CCCCCCCCCCCCCC)CCCN(CC(O)C(=O)N(C)CCCCCCCCCCCCCC)CC(O)C(=O)N(C)CCCCCCCCCCCCCC` (centres unmarked) [Compound L0357] the IVIS (route IM, organ not given) was 3.97E+06, the IVIS (route IV, organ: body) was 2.87E+07 and the “% of organ targeting” value (route IV, organ: liver) was 55.56%. The IVIS (route IV, organ: liver) was 6.55E+06, the “% of organ targeting” value (route IV, organ: lung) was 1.75% and the IVIS (route IV, organ: lung) was 2.06E+05. For the same compound, the “% of organ targeting” value (route IV, organ: spleen) was 42.69% and the IVIS (route IV, organ: spleen) was 5.03E+06.

In the case of `CCCCCCC(CCCCCC)C(=O)OCCCCCCNC(=O)C(O)CN(CCCN(C)CCCN(CC(O)C(=O)NCCCCCCOC(=O)C(CCCCCC)CCCCCC)CC(O)C(=O)NCCCCCCOC(=O)C(CCCCCC)CCCCCC)CC(O)C(=O)NCCCCCCOC(=O)C(CCCCCC)CCCCCC` (centres unmarked) [Compound L0358], the IVIS (route IM, organ not given) is reported as 1.45E+07.

With `CCCCCCC(CCCCCC)C(=O)OCCCCCCNC(=O)C(O)CN(CCN(C)CCN(CC(O)C(=O)NCCCCCCOC(=O)C(CCCCCC)CCCCCC)CC(O)C(=O)NCCCCCCOC(=O)C(CCCCCC)CCCCCC)CC(O)C(=O)NCCCCCCOC(=O)C(CCCCCC)CCCCCC` (centres unmarked) [Compound L0359] the IVIS (route IM, organ not given) was 2.25E+07, the IVIS (route IV, organ: body) was 2.65E+08 and the “% of organ targeting” value (route IV, organ: liver) was 33.50%. The IVIS (route IV, organ: liver) was 5.06E+07, the “% of organ targeting” value (route IV, organ: lung) was 6.37% and the IVIS (route IV, organ: lung) was 9.61E+06. For the same compound, the “% of organ targeting” value (route IV, organ: spleen) was 60.13% and the IVIS (route IV, organ: spleen) was 9.08E+07.

Compound `CCCCCCC(CCCCCC)C(=O)OCCCCCCNC(=O)C(O)CN(CCCN(CC(O)C(=O)NCCCCCCOC(=O)C(CCCCCC)CCCCCC)CC(O)C(=O)NCCCCCCOC(=O)C(CCCCCC)CCCCCC)CCCN(CC(O)C(=O)NCCCCCCOC(=O)C(CCCCCC)CCCCCC)CC(O)C(=O)NCCCCCCOC(=O)C(CCCCCC)CCCCCC` (centres unmarked) [Compound L0360] has an IVIS (route IM, organ not given) of 1.44E+07 and an IVIS (route IV, organ not given) of 4.50E+08.
